The source of these data is ChEMBL document CHEMBL1141743, “Malyngamides M and N from the Hawaiian Red Alga Gracilaria coronopifolia” (J Nat Prod, 1998).

Each structure is given as a SMILES string.

A short description of this test: Cytotoxicity against mouse NB cells. The test is classed as functional, cell-based.
In the case of `CCCCCCC[C@@H](C/C=C/CCC(=O)N(C)C/C(=C/Cl)[C@]12O[C@H]1CC=C(C)C2=O)OC` [MALYNGAMIDE N], the midpoint of inhibition, the IC50, lay at 12 µM.
For `CCCCCCC[C@@H](C/C=C/CCC(=O)N(C)C/C(=C/Cl)c1cccc(C)c1O)OC` [MALYNGAMIDE M], the IC50 (commonly the concentration at which inhibition is half-maximal) was above 20 µM.
As for `CCCCCCC[C@@H](C/C=C/CCC(=O)N(C)C/C(=C/Cl)[C@]12O[C@H]1C[C@@H](OC(C)=O)[C@@H](C)C2=O)OC`, it took 12 µM to reach half-maximal inhibition (IC50).
